Data: patent US11369609B2, “Small molecule Wnt inhibitor as treatment for dyslipidemia” (Yale University, priority 2019, dated 2022)
“Also recorded” adds a separate entry of the source.

What was measured:
canonical Wnt signaling [1] = assay: Renal fibrosis in STZ-induced diabetic CD-1 mice treated with Wnt inhibitor; type: in vivo
Description: All experiments were performed in accordance with the National Institute of Health (NIH) Guidelines for the Care of Laboratory Animals. Mice lacking the endothelial glucocorticoid receptor (GR) (known as GR^ECKO) and those lacking this receptor on the Apo E null background (DKO) were generated as previously described (6). The induction of diabetes in CD-1 mice and C57B/L6 mice was performed according to previously established experimental protocols (38-42). Briefly, diabetes was induced in 10-week-old GR^ECKO mice with five consecutive intraperitoneal (IP) doses of streptozotocin (STZ) 50 mg/kg in 10 mmol/L citrate buffer (pH 4.5). Wnt inhibitor (LGK974) was provided to GR^ECKO and control littermate at 5 mg/kg at a frequency of six doses per week for 8 weeks (43). Etomoxir (20 mg/kg) and c75 (15 mg/kg) were dosed (ip) three times per week for 3 weeks in the GR^ECKO and control littermate. A single IP dose of 200 mg/kg STZ was used to induce diabetes in CD-1 mice. Fenofibrate (100 mg/kg), simvastatin (40 mg/kg), were dosed orally for 4 weeks in diabetic CD-1 mice. All mice were sacrificed after 4 weeks of treatment and tissues and blood were harvested. Urine albumin levels were assayed using a Mouse Albumin ELISA Kit (Exocell, Philadelphia, Pa.).
A point-counting method was utilized to evaluate the relative area of the mesangial matrix. PAS-stained glomeruli from each mouse were analyzed using a digital microscope screen grid containing 540 (27×20) points. Masson's trichrome-stained images were evaluated by ImageJ software, and the fibrotic areas were estimated.
Deparaffinized sections were incubated with picrosirius red solution for 1 hour at room temperature. The slides were washed twice with acetic acid solution for 30 seconds per wash. The slides were then dehydrated in absolute alcohol three times, cleared in xylene, and mounted with a synthetic resin. Sirius red staining was analyzed using ImageJ software, and fibrotic areas were quantified.
Paraffin-embedded kidney sections (5 μm thick) were deparaffinized and rehydrated (2 min in xylene, four times; 1 min in 100% ethanol, twice; 1 min in 95% ethanol; 45 s in 70% ethanol; and 1 min in distilled water), and the antigen was retrieved in a 10 mM citrate buffer pH 6 at 98° C. for 60 min. To block the endogenous peroxidase, all sections were incubated in 0.3% hydrogen peroxide for 10 min. The immunohistochemistry was performed using a Vectastain ABC Kit (Vector Laboratories, Burlingame, Calif.). Mouse anti-[…] antibody (1:100) and CPT1a (Abnova; H00001374-DO1P; 1:100) antibody was used. In the negative controls, the primary antibody was omitted and replaced with the blocking solution.
Frozen kidney sections (5 μm) were used for immunofluorescence; double positive labeling with CD31/αSMA, CD31/TGFβR1 and E-cadherin/αSMA was measured. Briefly, frozen sections were dried and placed in acetone for 10 min at −30° C. Once the sections were dried, they were washed twice in phosphate-buffered saline (PBS) for 5 min and then blocked in 2% bovine serum albumin/PBS for 30 min at room temperature. Thereafter, the sections were incubated in primary antibody (1:100) for 1 hour and washed in PBS (5 min) three times. Next, the sections were incubated with the secondary antibodies for 30 min, washed with PBS three times (5 min each), and mounted with mounting medium with DAPI (Vector Laboratories, Burlingame, Calif.). The immune-labeled sections were analyzed by fluorescence microscopy. For each mouse, original magnification of ×400 pictures were obtained from six different areas, and quantification was performed.
(§1) To determine whether inhibition of the Wnt signaling pathway could ameliorate the observed fibrosis, LGK974, a small molecule inhibitor of all secreted Wnts (43), was utilized. FIGS. 21A-21B depict the schematic diagram showing the experimental protocol for LGK974 treatment in diabetic CD-1 and UUO mice.

canonical Wnt signaling [2] = assay: Plasma cytokine array analysis (Luminex) in wnti-treated diabetic mice; type: in vivo
Description: FIG. 22. […] Cytokines and chemokines were measured in plasma by using the cytokine array analysis (Luminex). The plasma of wnti-treated diabetic mice was analyzed for cytokine array analysis. N=5/group. Data are shown as mean±SEM. Tukey test was used for the analysis of statistical significance. *p<0.05.
as §1

kidney endothelial cells [3] = assay: Fatty acid uptake in isolated kidney endothelial cells; type: in vivo; settings: diabetic mice, radiolabeled [14C]palmitate uptake
Description: (§2) Endothelial cells from the kidneys of non-diabetic and diabetic mice were isolated using a standardized kit (Miltenyl Biotech, USA) by following the manufacturer's instructions. Briefly, kidneys were isolated and minced into small pieces. Using a series of enzymatic reactions by treating the tissue with trypsin and Collagenase type I solution, a single cell suspension was created. The pellet was dissolved with CD31 magnetic beads and the CD31-labelled cells were separated on a magnetic separator. The cells were further purified on a column. Cell number was counted by hemocytometer and cells were plated on 0.1% gelatin coated Petri dishes.
Cultured isolated kidney endothelial cells were incubated with medium containing 2 μCi [^14C]palmitate. [^14C]-palmitate uptake was measured by liquid scintillation counting.
It is increasingly recognized that defects in central metabolism contribute to kidney fibrosis (69, 76). Defective FA metabolism in EC leads to EndMT events (77). To investigate whether FA metabolism was deranged in the model, radiolabeled [^14C]palmitate uptake experiments were performed in isolated EC from mouse kidneys. […] FA oxidation (FAO) was also assessed by measuring the ^14CO2 release from radiolabeled [^14C]palmitate in cultured EC isolated from kidneys. […]

kidney endothelial cells [4] = assay: Fatty acid oxidation (14CO2 release from [14C]palmitate) in isolated kidney endothelial cells; type: in vivo, mice; settings: diabetic CD-1 mice, Wnt inhibitor
Description: as §2
Cultured isolated kidney endothelial cells were incubated with medium containing 0.75 mmol/L palmitate (conjugated to 2% free fatty acid-free BSA/[^14C] palmitate at 2 μCi/mL) for 2 h. One mL of the culture medium was transferred to a sealable tube, the cap of which housed a Whatman filter paper disc. ^14CO2 trapped in the media was then released by acidification of media using 60% perchloric acid. Radioactivity that had become adsorbed onto the filter discs was then quantified by liquid scintillation counting.
It is increasingly recognized that defects in central metabolism contribute to kidney fibrosis (69, 76). Defective FA metabolism in EC leads to EndMT events (77). To investigate whether FA metabolism was deranged in the model, radiolabeled [^14C]palmitate uptake experiments were performed in isolated EC from mouse kidneys. FA uptake was higher in isolated EC from the diabetic kidneys of the more fibrotic strain (diabetic CD-1) when compared to kidney EC from the less-fibrotic strain (diabetic C57BL/6). […] FA oxidation (FAO) was also assessed by measuring the ^14CO2 release from radiolabeled [^14C]palmitate in cultured EC isolated from kidneys. […] In the next set of experiments, diabetic CD-1 mice were treated with the FA synthase inhibitor C75, the FAO inhibitor etomoxir, the PPARα agonist fenofibrate, and the cholesterol-lowering drug simvastatin for 4 weeks. […] (FIG. 23A). Fenofibrate and C75 restored the level of GR protein in CD31 positive cells, whereas etomoxir and simvastatin suppressed it (FIG. 23B).

[5] = diabetic CD-1 mice, LGK974 5 mg/kg

In the case of Cc1cc(-c2ncc(CC(=O)Nc3ccc(-c4cnccn4)cn3)cc2C)ccn1 [LGK974], the ECM deposition (canonical Wnt signaling [1]; [5]) is reported as “greatly diminished”, the collagen accumulation (canonical Wnt signaling [1]; [5]) is reported as “greatly diminished” and the glomerulosclerosis (canonical Wnt signaling [1]; [5]) is reported as “greatly diminished”. For the same compound, the relative area fibrosis (canonical Wnt signaling [1]; [5]) was “greatly diminished”, the “endothelial GR level” value (canonical Wnt signaling [1]; diabetic mice, kidney CD31-positive cells) was “significantly restored” and the “level of β-catenin” value (canonical Wnt signaling [1]; diabetic mice, kidney immunohistochemistry) was “suppressed”. For the same compound, the “canonical Wnt signaling” value (canonical Wnt signaling [1]; mouse model of diabetic kidney disease) was “clearly suppressed”, the fibrogenic phenotype (canonical Wnt signaling [1]; mouse model of diabetic kidney disease (b57 legend also UUO mice)) was “substantially improved; also recorded: abolishes the fibrogenic phenotype” and the “cytokine- and chemokine reprogramming in plasma” value (canonical Wnt signaling [2]) was “disrupts the cytokine- and chemokine reprogramming”. For the same compound, the “plasma CCL4 level” value (canonical Wnt signaling [2]) was “significantly suppressed”, the “plasma CCL5 level” value (canonical Wnt signaling [2]) was “elevating” and the “plasma G-CSF level” value (canonical Wnt signaling [2]) was “significantly suppressed”. For the same compound, the “plasma IL-1β level” value (canonical Wnt signaling [2]) was “significantly suppressed”, the “plasma IL-6 level” value (canonical Wnt signaling [2]) was “significantly suppressed” and the “plasma IL-10 level” value (canonical Wnt signaling [2]) was “significantly suppressed”. The “plasma MCP-1 level” value (canonical Wnt signaling [2]) was “significantly suppressed”, the “plasma TNFα level” value (canonical Wnt signaling [2]) was “significantly suppressed” and the “FA uptake in isolated kidney EC” value (kidney endothelial cells [3]) was “suppressed FA uptake”. The “level of FAO in isolated kidney EC” value (kidney endothelial cells [4]) was “able to restore the level of FAO”.
